From patent publication US11242350B2, “Spirocyclic ROR-gamma modulators” (Escalier Biosciences B.V., priority 2018, dated 2022)

Target: RORγt (Homo sapiens (Human), UniProt P51449)
Assay: Gal4 ligand binding assay (RORγt Gal fusion luciferase reporter assay in HEK293T cells)
Type: cell-based
Conditions: RORγt inverse agonists in RORγt Gal fusion assay
Method: The N-terminal DNA binding domains (DBD) of the native RORγ and RORγt receptors have been substituted with that of the yeast GAL4-DBD and stably transfected in HEK293T cells that also stably express luciferase under the regulation by upstream activation sequence of yeast Gal4. These cells constitutively express high level RORγ activity due to binding of endogenous co-factors. Both agonist and inverse agonist activity can be detected. The assay was performed according to kit manufacturer's instructions as follows. 10 mM compound stocks were diluted serially 1:3 with DMSO and further diluted with provided media to generate 10 titration points from 60 μM to 3 nM. These treatment conditions were added to the plates as 2× media in 100 μL volume. Each plate includes a positive control with 10 titration points as well as 6 negative control wells with vehicle only, with final DMSO concentration of 0.2%. RORγ reporter cells were rapidly thawed and added to the plates in 100 μL volume. The plates were incubated for 24 h in a 37° C. humidified 5% CO2 incubator. Media was removed before the addition of room temperature luciferous detection substrate. After 5 minute incubation, relative light units (RLUs) were quantified using a plate reading luminometer. Data was normalized to […] with only 0.2%0DMSO. Before establishing internal controls, ursolic acid was used as control.

RORγt, sequence (P51449 269-508): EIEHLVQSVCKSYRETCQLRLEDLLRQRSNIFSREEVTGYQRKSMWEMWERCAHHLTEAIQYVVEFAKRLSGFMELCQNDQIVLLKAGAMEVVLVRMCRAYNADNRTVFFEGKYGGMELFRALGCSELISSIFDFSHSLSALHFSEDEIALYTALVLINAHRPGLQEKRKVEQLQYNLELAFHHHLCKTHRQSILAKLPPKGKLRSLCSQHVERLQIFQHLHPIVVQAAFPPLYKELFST

IC50	Compound
> 0.25 µM	CCc1cc(CN2CC(CNS(C)(=O)=O)C2)ccc1-c1ccc(C(O)(C(F)(F)F)C(F)(F)F)cc1 [Example 32, N-((1-((2-ethyl-4′-(1,1,1,3,3,3-hexafluoro-2-hydroxypropan-2-yl)-[1,1′-biphenyl]-4-yl)methyl)azetidin-3-yl)methyl)methanesulfonamide]
0.05 to 0.25 µM	CCc1cc(CN2CC3(CCN(S(C)(=O)=O)CC3)C2)ccc1-c1ccc(C(O)(C(F)(F)F)C(F)(F)F)cc1 [Example 33, 2-(2′-ethyl-4′-((7-(methylsulfonyl)-2,7-diazaspiro[3.5]nonan-2-yl)methyl)-[1,1′-biphenyl]-4-yl)-1,1,1,3,3,3-hexafluoropropan-2-ol]
< 0.05 µM	CCc1cc(CN2CC3(C2)CN(S(C)(=O)=O)C3)c(F)cc1-c1ccc(C(O)(C(F)(F)F)C(F)(F)F)cc1 [Example 36, 2-(2′-ethyl-5′-fluoro-4′-((6-(methylsulfonyl)-2,6-diazaspiro[3.3]heptan-2-yl)methyl)-[1,1′-biphenyl]-4-yl)-1,1,1,3,3,3-hexafluoropropan-2-ol]
0.05 to 0.25 µM	CCc1cc(CN2CC3(C2)CN(C(=O)OC)C3)ccc1-c1ccc(C(O)(C(F)(F)F)C(F)(F)F)cc1 [Example 40, methyl 6-((2-ethyl-4′-(1,1,1,3,3,3-hexafluoro-2-hydroxypropan-2-yl)-[1,1′-biphenyl]-4-yl)methyl)-2,6-diazaspiro[3.3]heptane-2-carboxylate]
0.05 to 0.25 µM	CCc1cc(CN2CC3(C2)CN(S(=O)(=O)C2CC2)C3)ccc1-c1ccc(C(O)(C(F)(F)F)C(F)(F)F)cc1 [Example 41, 2-(4′-((6-(cyclopropylsulfonyl)-2,6-diazaspiro[3.3]heptan-2-yl)methyl)-2′-ethyl-[1,1′-biphenyl]-4-yl)-1,1,1,3,3,3-hexafluoropropan-2-ol]
< 0.05 µM	CC(C)c1cc(CN2CC3(C2)CN(S(C)(=O)=O)C3)ccc1-c1ccc(C(O)(C(F)(F)F)C(F)(F)F)cc1 [Example 43, 1,1,1,3,3,3-hexafluoro-2-(2′-isopropyl-4′-((6-(methylsulfonyl)-2,6-diazaspiro[3.3]heptan-2-yl)methyl)-[1,1′-biphenyl]-4-yl)propan-2-ol]
0.05 to 0.25 µM	CS(=O)(=O)N1CC2(CN(Cc3ccc(-c4ccc(C(O)(C(F)(F)F)C(F)(F)F)cc4)c(Br)c3)C2)C1 [Example 45, 2-(2′-bromo-4′-((6-(methylsulfonyl)-2,6-diazaspiro[3.3]heptan-2-yl)methyl)-[1,1′-biphenyl]-4-yl)-1,1,1,3,3,3-hexafluoropropan-2-ol]
> 0.25 µM	CS(=O)(=O)N1CC2(CN(Cc3ccc(-c4ccc(C(O)(C(F)(F)F)C(F)(F)F)cc4)c(Cl)c3)C2)C1 [Example 47, 2-(2′-chloro-4′-((6-(methylsulfonyl)-2,6-diazaspiro[3.3]heptan-2-yl)methyl)-[1,1′-biphenyl]-4-yl)-1,1,1,3,3,3-hexafluoropropan-2-ol]
> 0.25 µM	CCc1cc(CN2CC3(C2)CN(C(C)=O)C3)ccc1-c1ccc(C(O)(C(F)(F)F)C(F)(F)F)cc1 [Example 48, 1-(6-((2-ethyl-4′-(1,1,1,3,3,3-hexafluoro-2-hydroxypropan-2-yl)-[1,1′-biphenyl]-4-yl)methyl)-2,6-diazaspiro[3.3]heptan-2-yl)ethan-1-one]
> 0.25 µM	CC(=O)N1CC2(CN(Cc3ccc(-c4ccc(C(O)(C(F)(F)F)C(F)(F)F)cc4)c(C)c3)C2)C1 [Example 49, 1-(6-((4′-(1,1,1,3,3,3-hexafluoro-2-hydroxypropan-2-yl)-2-methyl-[1,1′-biphenyl]-4-yl)methyl)-2,6-diazaspiro[3.3]heptan-2-yl)ethan-1-one]
> 0.25 µM	Cc1cc(CN2CC3(CN(Cc4ccncc4)C3)C2)ccc1-c1ccc(C(O)(C(F)(F)F)C(F)(F)F)cc1 [Example 51, 1,1,1,3,3,3-hexafluoro-2-(2′-methyl-4′-((6-(pyridin-4-ylmethyl)-2,6-diazaspiro[3.3]heptan-2-yl)methyl)-[1,1′-biphenyl]-4-yl)propan-2-ol]
0.05 to 0.25 µM	CCc1cc(CN2CC3(C2)CN(S(C)(=O)=O)C3)cnc1-c1ccc(C(O)(C(F)(F)F)C(F)(F)F)cc1 [Example 52, 2-(4-(3-ethyl-5-((6-(methylsulfonyl)-2,6-diazaspiro[3.3]heptan-2-yl)methyl)pyridin-2-yl)phenyl)-1,1,1,3,3,3-hexafluoropropan-2-ol]
0.05 to 0.25 µM	CCc1cc(CN2CCC3(CCNC3=O)C2)ccc1-c1ccc(C(O)(C(F)(F)F)C(F)(F)F)cc1 (centres unmarked) [Example 53, 7-((2-ethyl-4′-(1,1,1,3,3,3-hexafluoro-2-hydroxypropan-2-yl)-[1,1′-biphenyl]-4-yl)methyl)-2,7-diazaspiro[4.4]nonan-1-one]
> 0.25 µM	CN(C)C(=O)c1cc(CN2CC3(C2)CN(S(C)(=O)=O)C3)ccc1-c1ccc(C(O)(C(F)(F)F)C(F)(F)F)cc1 [Example 55, 4′-(1,1,1,3,3,3-hexafluoro-2-hydroxypropan-2-yl)-N,N-dimethyl-4-((6-(methylsulfonyl)-2,6-diazaspiro[3.3]heptan-2-yl)methyl)-[1,1′-biphenyl]-2-carboxamide]

Continued, compound first:

Compound	IC50
CCc1cc(CN2CCC3(C2)CN(S(C)(=O)=O)C3)ccc1-c1ccc(C(O)(C(F)(F)F)C(F)(F)F)cc1 [Example 30, 2-(2′-ethyl-4′-((2-(methylsulfonyl)-2,6-diazaspiro[3.4]octan-6-yl)methyl)-[1,1′-biphenyl]-4-yl)-1,1,1,3,3,3-hexafluoropropan-2-ol]	< 0.05 µM
CCc1cc(CN2CCC3(CCN(S(C)(=O)=O)C3)C2)ccc1-c1ccc(C(O)(C(F)(F)F)C(F)(F)F)cc1 (centres unmarked) [Example 31, 2-(2′-ethyl-4′-((7-(methylsulfonyl)-2,7-diazaspiro[4.4]nonan-2-yl)methyl)-[1,1′-biphenyl]-4-yl)-1,1,1,3,3,3-hexafluoropropan-2-ol]	< 0.05 µM
CCc1cc(CN2CC3(C2)CN(S(C)(=O)=O)C3)ccc1-c1ccc(C(O)(C(F)(F)F)C(F)(F)F)cc1F [Example 34, 2-(2′-ethyl-2-fluoro-4′-((6-(methylsulfonyl)-2,6-diazaspiro[3.3]heptan-2-yl)methyl)-[1,1′-biphenyl]-4-yl)-1,1,1,3,3,3-hexafluoropropan-2-ol]	< 0.05 µM
CCc1cc(CN2CC3(C2)CN(S(C)(=O)=O)C3)cc(F)c1-c1ccc(C(O)(C(F)(F)F)C(F)(F)F)cc1 [Example 35, 2-(2′-ethyl-6′-fluoro-4′-((6-(methylsulfonyl)-2,6-diazaspiro[3.3]heptan-2-yl)methyl)-[1,1′-biphenyl]-4-yl)-1,1,1,3,3,3-hexafluoropropan-2-ol]	< 0.05 µM
CCc1c(-c2ccc(C(O)(C(F)(F)F)C(F)(F)F)cc2)ccc(CN2CC3(C2)CN(S(C)(=O)=O)C3)c1F [Example 37, 2-(2′-ethyl-3′-fluoro-4′-((6-(methylsulfonyl)-2,6-diazaspiro[3.3]heptan-2-yl)methyl)-[1,1′-biphenyl]-4-yl)-1,1,1,3,3,3-hexafluoropropan-2-ol]	< 0.05 µM
CCc1cc(CN2CC3(CCN(C(=O)OC(C)(C)C)C3)C2)ccc1-c1ccc(C(O)(C(F)(F)F)C(F)(F)F)cc1 [Example 38, tert-butyl 2-((2-ethyl-4′-(1,1,1,3,3,3-hexafluoro-2-hydroxypropan-2-yl)-[1,1′-biphenyl]-4-yl)methyl)-2,6-diazaspiro[3.4]octane-6-carboxylate]	0.05 to 0.25 µM
CCc1cc(CN2CC3(C2)CN(S(C)(=O)=O)C3)ccc1-c1ccc(C(O)(C(F)(F)F)C(F)(F)F)cc1C [Example 39, 2-(2′-ethyl-2-methyl-4′-((6-(methylsulfonyl)-2,6-diazaspiro[3.3]heptan-2-yl)methyl)-[1,1′-biphenyl]-4-yl)-1,1,1,3,3,3-hexafluoropropan-2-ol]	< 0.05 µM
CS(=O)(=O)N1CC2(CN(Cc3ccc(-c4ccc(C(O)(C(F)(F)F)C(F)(F)F)cc4)c(C4CC4)c3)C2)C1 [Example 42, 2-(2′-cyclopropyl-4′-((6-(methylsulfonyl)-2,6-diazaspiro[3.3]heptan-2-yl)methyl)-[1,1′-biphenyl]-4-yl)-1,1,1,3,3,3-hexafluoropropan-2-ol]	< 0.05 µM
C=C(C)c1cc(CN2CC3(C2)CN(S(C)(=O)=O)C3)ccc1-c1ccc(C(O)(C(F)(F)F)C(F)(F)F)cc1 [Example 44, 1,1,1,3,3,3-hexafluoro-2-(4′-((6-(methylsulfonyl)-2,6-diazaspiro[3.3]heptan-2-yl)methyl)-2′-(prop-1-en-2-yl)-[1,1′-biphenyl]-4-yl)propan-2-ol]	< 0.05 µM
CS(=O)(=O)N1CC2(CN(Cc3ccc(-c4ccc(C(O)(C(F)(F)F)C(F)(F)F)cc4)c(C(F)(F)F)c3)C2)C1 [Example 46, 1,1,1,3,3,3-hexafluoro-2-(4′-((6-(methylsulfonyl)-2,6-diazaspiro[3.3]heptan-2-yl)methyl)-2′-(trifluoromethyl)-[1,1′-biphenyl]-4-yl)propan-2-ol]	0.05 to 0.25 µM
Cc1cc(CN2CC3(C2)CN(S(C)(=O)=O)C3)ccc1-c1ccc(C(O)(C(F)(F)F)C(F)(F)F)cc1 [Example 50, 1,1,1,3,3,3-hexafluoro-2-(2′-methyl-4′-((6-(methylsulfonyl)-2,6-diazaspiro[3.3]heptan-2-yl)methyl)-[1,1′-biphenyl]-4-yl)propan-2-ol]	0.05 to 0.25 µM
CCc1cc(CN2CCC3(CNC(=O)C3)C2)ccc1-c1ccc(C(O)(C(F)(F)F)C(F)(F)F)cc1 (centres unmarked) [Example 54, 7-((2-ethyl-4′-(1,1,1,3,3,3-hexafluoro-2-hydroxypropan-2-yl)-[1,1′-biphenyl]-4-yl)methyl)-2,7-diazaspiro[4.4]nonan-3-one]	0.05 to 0.25 µM
